In ChEMBL document CHEMBL4665686, “Dehydrohispanolone Derivatives Attenuate the Inflammatory Response through the Modulation of Inflammasome Activation” (J Nat Prod, 2020) one finds Activity, inhibition and IC50 data, which are given here for 19 compounds.

Activity calls are given as the source filed them. No cut-off for these calls is given here. A value given as a limit tells only on which side of the number the result lay.

One series has as its system J774.A1. The series can be described thus: Cytotoxicity against mouse J774.A1 cells assessed as cell viability at 10 to 20 uM after 24 hrs by MTT assay. The class given is cell-based. Particulars: j774.a1, 24 h, dose 10-20 µM. On the technique in general: Formazan colour is commonly taken as a measure of viable cells.
For series [1], the target named is NACHT, LRR and PYD domains-containing protein 3 (Mus musculus) (UniProt Q8R4B8). The series can be described thus: Inhibition of NLRP3 in mouse J774A.1 cells assessed as inhibition of LPS-induced NO production at 20 uM measured after 24 hrs by Griess reagent. Format: cell-based. To be noted: J774.A1. (In general: The Griess reaction detects nitrite, a stable product of nitric oxide.)

Series [2] shares this target. The series is described as follows: Inhibition of NLRP3 in mouse J774A.1 cells assessed as inhibition of LPS and nigerecin-induced IL-1beta production at 20 uM pre-stimulated with LPS for 5 hrs followed by compound treatment for 30 mins and then nigericin addition for 45 mins by ELISA. The class given is cell-based. To be noted: J774.A1, time 75.0 min. For orientation: In an ELISA, binding on a coated surface is turned into a signal by an enzyme label.

The target of series [3] is NACHT, LRR and PYD domains-containing protein 3 (Mus musculus, UniProt Q8R4B8). The series is described as follows: Inhibition of NLRP3 in mouse J774A.1 cells assessed as inhibition of LPS and nigerecin-induced IL-1beta production pre-stimulated with LPS for 5 hrs followed by compound treatment for 30 mins and then nigericin addition for 45 mins by ELISA. The class given is cell-based, J774.A1.

Series [4] has as its target NACHT, LRR and PYD domains-containing protein 3 (Mus musculus) (UniProt Q8R4B8). The series is described as follows: Inhibition of NLRP3 in mouse J774A.1 cells assessed as inhibition of LPS and nigericin-induced cleaved IL-1beta production at 20 uM pre-stimulated with LPS for 5 hrs before compound addition with ATP for 45 mins by Western blot analysis. To be noted: J774.A1. The class given is cell-based.

Series [5] has the same target. The series can be described thus: Inhibition of NLRP3 in mouse J774A.1 cells assessed as inhibition of LPS and ATP-induced IL-1beta production at 20 uM pre-stimulated with LPS for 5 hrs followed by compound treatment for 30 mins and then ATP addition for 45 mins by ELISA. The class given is cell-based. To be noted: J774.A1, time 75.0 min.
Series [6] has the same target. The series is described as follows: Inhibition of NLRP3 in mouse J774A.1 cells assessed as inhibition of LPS and MSU-induced IL-1beta production at 20 uM pre-stimulated with LPS for 5 hrs followed by compound treatment for 30 mins and then MSU addition for 24 hrs by ELISA. Format: cell-based. To be noted: J774.A1, time 24.5 hrs.
Series [7] shares this target. To be noted: J774.A1, dose 300.0 nM, time 45.0 min.

Chain of NACHT, LRR and PYD domains-containing protein 3 (Mus musculus) (Q8R4B8 whole entry, the tested form may be a part): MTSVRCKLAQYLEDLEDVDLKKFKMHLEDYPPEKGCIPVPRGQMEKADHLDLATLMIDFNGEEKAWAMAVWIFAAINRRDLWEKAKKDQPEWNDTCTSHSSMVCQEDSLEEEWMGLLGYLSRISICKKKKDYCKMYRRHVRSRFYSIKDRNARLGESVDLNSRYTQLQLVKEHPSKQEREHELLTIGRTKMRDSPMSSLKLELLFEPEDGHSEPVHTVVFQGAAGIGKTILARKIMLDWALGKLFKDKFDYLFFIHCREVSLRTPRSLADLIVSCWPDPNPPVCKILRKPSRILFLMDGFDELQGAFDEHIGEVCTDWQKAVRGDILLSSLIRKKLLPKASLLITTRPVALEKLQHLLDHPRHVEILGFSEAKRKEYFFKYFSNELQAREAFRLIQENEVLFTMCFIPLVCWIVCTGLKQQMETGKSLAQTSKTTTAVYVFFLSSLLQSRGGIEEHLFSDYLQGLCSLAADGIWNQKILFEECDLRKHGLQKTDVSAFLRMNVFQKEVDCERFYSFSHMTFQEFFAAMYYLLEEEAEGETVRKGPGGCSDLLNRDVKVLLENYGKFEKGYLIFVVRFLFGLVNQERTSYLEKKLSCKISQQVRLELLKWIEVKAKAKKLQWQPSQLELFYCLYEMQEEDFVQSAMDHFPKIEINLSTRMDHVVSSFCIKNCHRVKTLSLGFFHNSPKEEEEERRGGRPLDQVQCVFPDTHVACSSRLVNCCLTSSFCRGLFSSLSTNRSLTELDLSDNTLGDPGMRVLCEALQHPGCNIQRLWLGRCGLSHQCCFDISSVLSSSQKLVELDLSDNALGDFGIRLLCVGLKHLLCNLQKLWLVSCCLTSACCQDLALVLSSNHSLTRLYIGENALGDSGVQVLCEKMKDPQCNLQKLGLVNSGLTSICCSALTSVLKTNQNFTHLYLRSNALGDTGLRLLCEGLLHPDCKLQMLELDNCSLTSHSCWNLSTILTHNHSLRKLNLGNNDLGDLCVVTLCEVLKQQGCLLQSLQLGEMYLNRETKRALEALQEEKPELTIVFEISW
Chain of NACHT, LRR and PYD domains-containing protein 3 (Q8R4B8 whole entry, the tested form may be a part): as above

Take `CC1=C(CCc2ccoc2)[C@@]2(C)CCCC(C)(C)[C@@H]2C/C1=N/O`: in the series with J774.A1, the Activity result is listed as “Non-Toxic”.

By inhibition is commonly meant the share of the control response that was lost under treatment. Regarding `CC1=C(CCC2CCOC2)[C@@]2(C)CCCC(C)(C)[C@@H]2CC1=O` (some centres undefined), in the series with J774.A1, the Activity result is reported as “Non-Toxic”. Further, the inhibition in series [1] is above 50%. Further, the inhibition result in series [2] was “Active”.

As for `CC(=O)O/N=C1/C[C@H]2C(C)(C)CCC[C@]2(C)C(CCc2ccoc2)=C1C`, in the series on J774.A1, the Activity entry is on record as “Non-Toxic”.

`CC1=C(CCc2ccoc2)[C@@]2(C)CCCC(C)(C)[C@@H]2CC(=O)N1`: the Activity entry with J774.A1 was “Non-Toxic”.

With `CC1=C(CCc2ccoc2)[C@@]2(C)CCCC(C)(C)[C@@H]2C/C1=N/OC(=O)N(C)C`, the Activity entry with J774.A1 is “Non-Toxic”.

Regarding `CO[C@H]1C[C@H]2C(C)(C)CCC[C@]2(C)C(CCc2ccoc2)=C1C`, the Activity entry with J774.A1 is reported as “Non-Toxic”.

Turning to `CC1=C(CCc2ccoc2)[C@@]2(C)CCCC(C)(C)[C@@H]2CC1=O`, the Activity entry in the series with J774.A1 was “Toxic”.

On to `CC1=C(CCc2ccoc2)[C@@]2(C)CCCC(C)(C)[C@@H]2C/C1=N/OC(=O)c1ccc(Br)cc1`, for which the Activity result in the series on J774.A1 is “Non-Toxic”. Further, the inhibition in series [1] is above 50%.

The IC50 is the midpoint of a concentration-inhibition curve. Consider `CC1=C(CCc2ccoc2)[C@@]2(C)CCCC(C)(C)[C@@H]2C/C1=N/OC(=O)c1ccc(C(=O)O/N=C2/C[C@H]3C(C)(C)CCC[C@]3(C)C(CCc3ccoc3)=C2C)cc1`, for which, in the series with J774.A1, the Activity result is “Non-Toxic”. The inhibition entry in series [2], in series [4], in series [5] and in series [6] was “Active” each time. Further, the concentration for half-maximal inhibition (IC50) in series [3] is 13.8 µM.

Regarding `CC1=C(CCc2ccoc2)[C@@]2(C)CCCC(C)(C)[C@@H]2C/C1=N/OC(=O)c1cccc(C(=O)O/N=C2/C[C@H]3C(C)(C)CCC[C@]3(C)C(CCc3ccoc3)=C2C)n1`, the Activity result with J774.A1 was “Non-Toxic”.

Regarding `CC1=C(CCc2ccoc2)[C@@]2(C)CCCC(C)(C)[C@@H]2C[C@@H]1O`, the Activity result in the series on J774.A1 was “Toxic”.

As for `CCCCCCCCCCCC(=O)O/N=C1/C[C@H]2C(C)(C)CCC[C@]2(C)C(CCc2ccoc2)=C1C`, in the series on J774.A1, the Activity entry is reported as “Non-Toxic”. The inhibition result in series [2], in series [4], in series [5] and in series [6] was “Active” each time. Also, the IC50 in series [3] was found to be 18.7 µM.

For `CC(C)(O)c1coc(S(=O)(=O)NC(=O)Nc2c3c(cc4c2CCC4)CCC3)c1`, in series [7], the inhibition entry was “Active”.

On to `CC1=C(CCc2ccoc2)[C@@]2(C)CCCC(C)(C)[C@@H]2CC1N` (some centres undefined), for which the Activity result in the series with J774.A1 is given as “Toxic”.

On to `CC1=C(CCc2ccoc2)[C@@]2(C)CCCC(C)(C)[C@@H]2C/C1=N/OC(=O)CCCCC(=O)O/N=C1/C[C@H]2C(C)(C)CCC[C@]2(C)C(CCc2ccoc2)=C1C`, for which, in the series with J774.A1, the Activity result is given as “Non-Toxic”.

With `CO/N=C1/C[C@H]2C(C)(C)CCC[C@]2(C)C(CCc2ccoc2)=C1C`, the Activity entry in the series with J774.A1 is “Non-Toxic”.

`CC1=C(CCc2ccoc2)[C@@]2(C)CCCC(C)(C)[C@@H]2C/C1=N/OS(=O)(=O)c1ccc(C)cc1`: in the series with J774.A1, the Activity entry is given as “Non-Toxic”.

`CCC1=C(Cc2ccoc2)C(=O)[C@@]2(C)CCCC(C)(C)[C@@H]2C1`: the Activity result with J774.A1 is given as “Non-Toxic”. The inhibition in series [1] was above 50%. Also, the inhibition result in series [2] was “Active”.

Consider `CC1=C(CCc2ccoc2)[C@@]2(C)CCCC(C)(C)[C@@H]2C/C1=N/OC(=O)c1ccc(C(=O)O)cc1`, for which the Activity entry with J774.A1 is reported as “Toxic”.
